From patent publication US20140349989A1, “COMPOUNDS AND THERAPEUTIC USES THEREOF” (Alzheimer's Institute of America, priority 2011, published 2014)
Like-named read-outs stand apart in the source and are kept apart here.

Assay: Cytotoxicity Assay (HCT116, CellTiter-Glo)
Type: cell-based
Settings: human
Procedure: HCT116 cells were seeded in 96 well plates (Greiner Bio-One, Monroe, N.C.) and allowed to settle overnight. Test compound dissolved in dimethyl sulfoxide (DMSO) was added and drug incubation proceeded for 72 hours. When applicable, a 1000× solution of nicotinic acid (NA; Sigma-Aldrich, St. Louis, Mo.) dissolved in water was generated, and 1×NA (10 μM final concentration) was added at the same time as the test compound. After 72 hour, 50 μL of CellTiter-Glo Luminescent Cell Viability Assay reagent (Promega Corporation, Madison, Wis.) was added to cells in 200 μL of cellular media. After a proscribed incubation period, luminescence was measured using a TopCount NXT plate reader (PerkinElmer, Waltham, Mass.).

[1] = HCT116 cells, 72 hours drug incubation, CellTiter-Glo luminescence, read-out: HCT116 cell cytotoxicity IC50

SMILES	IC50 at 72 h [1]	IC50 at 72 h (HCT116 cell cytotoxicity IC50)
O=C(NCc1cccnc1)N[C@H]1CC[C@H](n2cc(C(=O)N3CCN(C4CCCCC4)CC3)c3ccccc32)CC1 [Compound 37, 1-(trans-4-{3-[(4-Cyclohexyl-piperazin-1-yl)carbonyl]-1H-indol-1-yl}cyclohexyl)-3-(pyridin-3-ylmethyl)urea]	< 100 nM	–
C[C@@H]1CN(CCc2cn(-c3ccc(NC(=O)NCc4cccnc4)cc3)c3ccccc23)C[C@H](C)O1 [Compound 53, 1-[4-(3-{2-[(2R,6S)-2,6-Dimethyl-morpholin-4-yl]ethyl}-1H-indol-1-yl)phenyl]-3-(pyridin-3-ylmethyl)urea]	< 100 nM	–
O=C(NCCCCCn1cc(C(=O)N2CCN(C3CCCCC3)CC2)c2ccccc21)NCc1cccnc1 [Compound 116, 1-(5-{3-[(4-Cyclohexyl-piperazin-1-yl)carbonyl]-1H-indol-1-yl}pentyl)-3-(pyridin-3-ylmethyl)urea]	< 100 nM	–
O=C(/C=C/c1ccc(-n2nc(C(=O)N3CCC(N4CCCCC4)CC3)c3ccccc32)cc1)NCc1cccnc1 [Compound 177, (2E)-3-{4-[3-(1,4′-Bipiperidin-1′-ylcarbonyl)-1H-indazol-1-yl]phenyl}-N-(pyridin-3-ylmethyl)prop-2-enamide]	–	< 100 nM
O=C(NCc1cccnc1)Nc1ccc2c(c1)c(C(=O)NCCCN1CCOCC1)cn2Cc1ccccc1 [Compound 51, 1-Benzyl-N-[3-(morpholin-4-yl)propyl]-5-{[(pyridin-3-ylmethyl)carbamoyl]ami-no}-1H-indole-3-carboxamide]	≥ 100 nM	–
O=C(Cc1ccc(-n2nc(C(=O)N3CCC(N4CCCCC4)CC3)c3ccccc32)cc1)NCc1cccnc1 [Compound 183, 2-{4-[3-(1,4′-Bipiperidin-1′-ylcarbonyl)-1H-indazol-1-yl]phenyl}-N-(pyridin-3-ylmethyl)acetamide]	< 100 nM	–
O=C(CCc1ccc(-n2cc(CCN3CCOCC3)c3ccccc32)cc1)NCc1cccnc1 [Compound 180, 3-(4-{3-[2-(Morpholin-4-yl)ethyl]-1H-indol-1-yl}phenyl)-N-(pyridin-3-ylmethyl)propanamide]	< 100 nM	–
CCN1CCN(C(=O)c2cn(CCCCCNC(=O)NCc3cncs3)c3ccccc23)CC1 [Compound 113, 1-(5-{3-[(4-Ethylpiperazin-1-yl)carbonyl]-1H-indol-1-yl}pentyl)-3-(1,3-thiazol-5-ylmethyl) urea]	< 100 nM	–
O=C(NCc1cccnc1)Nc1ccc2c(C(=O)N3CCC(N4CCCCC4)CC3)cn(Cc3ccccc3)c2c1 [Compound 68, 1-[1-Benzyl-3-(1,4′-bipiperidin-1′-yl-carbonyl)-1H-indol-6-yl]-3-(pyridin-3-ylmethyl)urea]	≥ 100 nM	–
O=C(NCc1cccnc1)Nc1ccc(-n2cc(CCN3CC[C@@H](F)C3)c3ccccc32)cc1 [Compound 38, 1-[4-(3-{2-[(3R)-3-Fluoropyrrolidin-1-yl]ethyl}-1H-indol-1-yl)phenyl]-3-(pyridin-3-ylmethyl)urea]	< 100 nM	–
O=C(/C=C/c1ccc(-n2cc(CCN3CCCCC3)c3ccccc32)cc1)NCc1cccnc1 [Compound 182, (2E)-3-(4-{3-[2-(Piperidin-1-yl)ethyl]-1H-indol-1-yl}phenyl)-N-(pyridin-3-ylmethyl)prop-2-enamide]	< 100 nM	–
CN1CCN(C2CCN(C(=O)c3cn(CCCCCNC(=O)NCc4cccnc4)c4ccccc34)CC2)CC1 [Compound 64, 1-[5-(3-{[4-(4-Methylpiperazin-1-yl)piperidin-1-yl]carbonyl}-1H-indol-1-yl)pentyl]-3-(pyridin-3-ylmethyl) urea]	< 100 nM	–
O=C(NCCCCCCc1c[nH]c2ccccc12)NCc1cccnc1 [Compound 89, 1-[6-(1H-Indol-3-yl)hexyl]-3-(pyridin-3-ylmethyl)urea]	–	≥ 100 nM
O=C(/C=C/c1ccc(-n2cc(CCN3CCCOCC3)c3ccccc32)cc1)NCc1cccnc1 [Compound 181, (2E)-3-(4-{3-[2-(1,4-Oxazepan-4-yl)ethyl]-1H-indol-1-yl}phenyl)-N-(pyridin-3-ylmethyl)prop-2-enamide]	< 100 nM	–
CN(C)CC(=O)N1CCC2(CC1)CN(c1ccc(NC(=O)NCc3cccnc3)cc1)c1ccccc12 [Compound 112, 1-{4-[1′-(N,N-Dimethylglycyl)spiro[indole-3,4′-piperidin]-1(2H)-yl]phenyl}-3-(pyridin-3-ylmethyl)urea]	< 100 nM	–
O=C(NCCCCn1cc(C(=O)N2CCC(N3CCCCC3)CC2)c2ccccc21)NCc1cccnc1 [Compound 57, 1-{4-[3-(1,4′-Bipiperidin-1′-yl-carbonyl)-1H-indol-1-yl]butyl}-3-(pyridin-3-ylmethyl) urea]	< 100 nM	–
CN(C)C1CCN(C(=O)c2nn(-c3ccc(/C=C/C(=O)NCc4cccnc4)cc3)c3ccccc23)C1 (stereo not shown) [Compound 166, (2E)-3-[4-(3-{[3-(Dimethylamino)pyrrolidin-1-yl]carbonyl}-1H-indazol-1-yl)phenyl]-N-(pyridin-3-ylmethyl)prop-2-enamide]	< 100 nM	–

SMILES	IC50 at 72 h [1]	IC50 at 72 h (HCT116 cell cytotoxicity IC50)
O=C(NCc1cccnc1)Nc1ccc(-n2cc(-c3ccccc3OCCCN3CCOCC3)cn2)cc1 [Compound 30, 1-[4-(4-{2-[3-(Morpholin-4-yl)propoxy]phenyl}-1H-pyrazol-1-yl)phenyl]-3-(pyridin-3-ylmethyl)urea]	< 100 nM	–
O=C(NCc1cccnc1)Nc1ccc(-n2cc(CCN3CCOCC3)c3ccccc32)cc1 [Compound 100, 1-(4-{3-[2-(Morpholin-4-yl)ethyl]-1H-indol-1-yl}phenyl)-3-(pyridin-3-ylmethyl)urea]	< 100 nM	–
Nc1nn(-c2ccc(NC(=O)NCc3cccnc3)cc2)c2ccccc12 [Compound 44, 1-[4-(3-aminoindazol-1-yl)phenyl]-3-(3-pyridylmethyl)urea]	–	≥ 100 nM
O=C(NCc1cccnc1)Nc1ccc(N2CC3(CCN(C4CCCC4)CC3)c3ccccc32)cc1 [Compound 117, 1-[4-(1′-Cyclo-pentylspiro[indole-3,4′-piperidin]-1(2H)-yl)phenyl]-3-(pyridin-3-ylmethyl)urea]	< 100 nM	–
CC(C)N(CCc1cn(-c2ccc(/C=C/C(=O)NCc3cccnc3)cc2)c2ccccc12)C(C)C [Compound 163]	< 100 nM	–
O=C(NCc1cccnc1)Nc1ccc(-n2cc(CCN3CCCCC3)c3ccccc32)cc1 [Compound 49, 1-(4-{3-[2-(Piperidin-1-yl)ethyl]-1H-indol-1-yl}phenyl)-3-(pyridin-3-ylmethyl)urea]	–	< 100 nM
O=C(NCCCn1cc(C(=O)N2CCC(N3CCCCC3)CC2)c2ccccc21)NCc1cccnc1 [Compound 36, 1-{3-[3-(1,4′-Bipiperidin-1′-ylcarbonyl)-1H-indol-1-yl]propyl}-3-(pyridin-3-ylmethyl)urea]	≥ 100 nM	–
O=C(NCc1cccnc1)Nc1ccc(-n2nc(CC(=O)N3CCCCC3)c3ccccc32)cc1 [Compound 84, 1-(4-{3-[2-Oxo-2-(piperidin-1-yl)ethyl]-1H-indazol-1-yl}phenyl)-3-(pyridin-3-ylmethyl)urea]	< 100 nM	–
O=C(NCc1ccc(Cl)nc1)Nc1ccc(-n2nc(N3CCN(C4CCCC4)CC3)c3ccccc32)cc1 [Compound 55, 1-[(6-Chloro-pyridin-3-yl)methyl]-3-{4-[3-(4-cyclopentyl-piperazin-1-yl)-1H-indazol-1-yl]phenyl}urea]	–	≥ 100 nM
O=C(NCc1cccnc1)Nc1ccc(-n2cc([C@H]3CC[C@@H](N4CC(F)(F)C4)CC3)c3ccccc32)cc1 [Compound 94, 1-[4-[3-[4-(3,3-difluoroazetidin-1-yl)cyclohexyl]indol-1-yl]phenyl]-3-(3-pyridylmethyl)urea]	< 100 nM	–
Cc1c(C(=O)N2CCC(N3CCC(F)(F)CC3)CC2)c2ccccc2n1-c1ccc(NC(=O)NCc2cccnc2)cc1 [Compound 77, 1-(4-{3-[(4,4-Difluoro-1,4′-bipiperidin-1′-yl)carbonyl]-2-methyl-1H-indol-1-yl}phenyl)-3-(pyridin-3-ylmethyl)urea]	< 100 nM	–
CC(C)(C)OC(=O)N1CC(N2CC(CCCCCCNC(=O)NCc3cccnc3)c3ccccc32)C1 (stereo not shown) [Compound 121, tert-Butyl 3-[3-(6-{[(pyridin-3-yl-methyl)carbamoyl]amino}hexyl)-2,3-dihydro-1H-indol-1-yl]azetidine-1-carboxylate]	–	< 100 nM
O=C(NCc1cccnc1)Nc1ccc(N2CC3(CCNCC3)c3ccccc32)cc1 [Compound 80, 1-(Pyridin-3-ylmethyl)-3-[4-(spiro[indole-3,4′-piperidin]-1(2H)-yl)phenyl]urea]	–	< 100 nM
O=C(NCc1ccc(Cl)nc1)Nc1ccc(-n2cc(CCN3CCOCC3)c3ccccc32)cc1 [Compound 128, 1-[(6-Chloro-pyridin-3-yl)methyl]-3-(4-{3-[2-(morpholin-4-yl)ethyl]-1H-indol-1-yl}phenyl)urea]	–	< 100 nM
O=C(NCc1cccnc1)Nc1ccc(-n2cc(C3CCN(C4CCCC4)CC3)c3ccccc32)cc1 [Compound 110, 1-{4-[3-(1-Cyclopentyl-piperidin-4-yl)-1H-indol-1-yl]phenyl}-3-(pyridin-3-ylmethyl)urea]	< 100 nM	–
CCOCCOCCN1CCC2(CC1)CN(c1ccc(NC(=O)NCc3cccnc3)cc1)c1ccccc12 [Compound 126, 1-(4-{1′-[2-(2-Ethoxy-ethoxy)ethyl]spiro[indole-3,4′-piperidin]-1(2H)-yl}phenyl)-3-(pyridin-3-ylmethyl)urea]	–	≥ 100 nM
Cc1c(-c2ccccc2)c(C(=O)N2CCC(N3CCCCC3)CC2)nn1-c1ccc(NC(=O)NCc2cccnc2)cc1 [Compound 73, 1-{4-[3-(1,4′-Bipiperidin-1′-ylcarbonyl)-5-methyl-4-phenyl-1H-pyrazol-1-yl]phenyl}-3-(pyridin-3-ylmethyl)urea]	< 100 nM	–
